In this assay the test system is B16 cells. The assay is described as follows: Test of whitening B16 cells (whiteness of cell pellets observed with the naked eye). In kind it is cell-based. To be noted: for Whiteness of Cells: cell pellets after five days; for EC (whiteness 3+): Mus musculus, whiteness of cells 3 + (gray), read-out: Concentration of the test compound to give whiteness of cells of being 3 + (gray). The protocol:
PMC was added to Eagle's MEM medium, to which a fetal calf serum had been added, in a concentration of 100, 50, 20 or 10 µM. 1 × 10⁵ B16 cells were inoculated into the medium. Three days after the inoculation, the medium was exchanged for a fresh one.
Standards of evaluation of whiteness of cells are as follows: 5 + : White 4 + : White to Gray 3 + : Gray 2 + : Gray to Black 1 + : Black (but somewhat paler than control) - : Black

The values that follow come from EP0445735A1, “Melanogenesis-inhibiting endermic preparation” (Sansho Seiyaku Co., Ltd., priority 1990, dated 1991).

For the compound `Cc1c(C)c2c(c(C)c1O)CCC(C)(C)O2` [PMC, 2,2,5,7,8-Pentamethyl-6-hydroxychroman], the EC (whiteness 3+) was 50 µM. Under “Concentration 10 µM”, the “Whiteness of Cells” value is on record as 1 +. Moreover, the “Whiteness of Cells” value (Concentration 20 µM) is on record as 2 +. Besides, the “Whiteness of Cells” value (Concentration 50 µM) is recorded as 3 +. Besides, the “Whiteness of Cells” value (Concentration 100 µM) is given as 4 +.
With `Cc1c(C)c2c(c(C)c1O)CCC(C)(CO)O2` (stereo not drawn) [(5), 2,5,7,8-Tetramethyl-6-hydroxy-2-hydroxymethylchroman], the EC (whiteness 3+) was found to be 40 µM.
The same measure, in the same setting: in the case of `COC1(C)CCc2c(C)c(O)c(C)c(C)c2O1` (stereo not drawn) [(3), 2,5,7,8-Tetramethyl-2-methoxzy-6-hydroxychroman] it was 50 µM.
On the same count and under the same terms, in the case of `CCOC(=O)CC1(C)CCc2c(C)c(O)c(C)c(C)c2O1` (stereo not drawn) [(6), Ethyl 2,5,7,8-tetramethyl-6-hydroxychroman-2-acetate] it was 30 µM.
The same measure, in the same setting: as for `Cc1c2c(c(C(C)C)c(O)c1C(C)C)CCC(C)(C)O2` [(4), 2,2,8-Trimethyl-5,7-diisopropyl-6-hydroxychroman], the figure is 20 µM.
